Laboratory results taken from ChEMBL document CHEMBL4811256, “Synthesis and evaluation of multi-target-directed ligands with BACE-1 inhibitory and Nrf2 agonist activities as potential agents against Alzheimer's disease” (Eur J Med Chem, 2021).
Activity calls are given as the source filed them. No cut-off for these calls is given here.

Key:
[1] = test system: PC-12; experiment: Cytoprotective activity against 6-OHDA-induced oxidative stress in rat PC-12 cells assessed as decrease in cell death at 10 uM pretreated with brusatol for 1 hr followed by compound treatment for 12 hrs and subsequent 6-OHDA challenge by MTT assay; type: functional, cell-based
[2] = test system: PC-12; experiment: Protection against H2O2-induced apoptosis in rat PC-12 cells assessed as late apoptic cells at 10 uM pretreated for 12 hrs followed by H2O2 challenge by annexin V FITC/propidium iodide staining based flow cytometry (reference value: 20.8 %); type: functional
[3] = test system: PC-12; experiment: Protection against 6-OHDA-induced mitochondrial dysfunction in rat PC-12 cells assessed as change in mitochondrial membrane potential at 10 uM pretreated with compound for 12 hrs followed by 6-OHDA challenge by JC-1 staining based flow cytometry (reference value: 56 %); type: functional
[4] = test system: PC-12; experiment: Protection against H2O2-induced apoptosis in rat PC-12 cells assessed as early apoptic cells at 10 uM pretreated for 12 hrs followed by H2O2 challenge by annexin V FITC/propidium iodide staining based flow cytometry (reference value: 2.2 %); type: functional
[5] = test system: PC-12; experiment: Protection against 6-OHDA-induced apoptosis in rat PC-12 cells assessed as viable cells at 5 uM pretreated for 12 hrs followed by 6-OHDA challenge by annexin V FITC/propidium iodide staining based flow cytometry (reference value: 76.7 %); type: functional; settings: read-out: Activity
[6] = test system: PC-12; experiment: Activation of Keap1-Nrf2-ARE pathway in rat PC-12 assessed as upregulation of total Nrf2 protein expression at 10 uM measured after 3 hrs by Western blot analysis; settings: filed as activator
[7] = test system: PC-12; experiment: Activation of Keap1-Nrf2-ARE pathway in rat PC-12 assessed as upregulation of HO-1 protein expression at 10 uM measured after 6 to 24 hrs by Western blot analysis; settings: filed as activator, time 6-24 hrs
[8] = test system: PC-12; experiment: Protection against 6-OHDA-induced apoptosis in rat PC-12 cells assessed as late apoptotic cells at 2.5 uM pretreated for 12 hrs followed by 6-OHDA challenge by annexin V FITC/propidium iodide staining based flow cytometry (reference value: 17.3 %); type: functional
[9] = test system: PC-12; experiment: Protection against 6-OHDA-induced mitochondrial dysfunction in rat PC-12 cells assessed as change in mitochondrial membrane potential at 2.5 uM pretreated with compound for 12 hrs followed by 6-OHDA challenge by JC-1 staining based flow cytometry (reference value: 56 %); type: functional
[10] = target: T1, Nuclear factor erythroid 2-related factor 2 (Mus musculus) (UniProt Q60795); experiment: Activation of Nrf2 in mouse BV-2 cells assessed as upregulation of NQO1 protein expression after 24 hrs by Western blot analysis; type: cell-based; settings: filed as activator, dose 2.5-10 µM
T1 sequence (whole entry): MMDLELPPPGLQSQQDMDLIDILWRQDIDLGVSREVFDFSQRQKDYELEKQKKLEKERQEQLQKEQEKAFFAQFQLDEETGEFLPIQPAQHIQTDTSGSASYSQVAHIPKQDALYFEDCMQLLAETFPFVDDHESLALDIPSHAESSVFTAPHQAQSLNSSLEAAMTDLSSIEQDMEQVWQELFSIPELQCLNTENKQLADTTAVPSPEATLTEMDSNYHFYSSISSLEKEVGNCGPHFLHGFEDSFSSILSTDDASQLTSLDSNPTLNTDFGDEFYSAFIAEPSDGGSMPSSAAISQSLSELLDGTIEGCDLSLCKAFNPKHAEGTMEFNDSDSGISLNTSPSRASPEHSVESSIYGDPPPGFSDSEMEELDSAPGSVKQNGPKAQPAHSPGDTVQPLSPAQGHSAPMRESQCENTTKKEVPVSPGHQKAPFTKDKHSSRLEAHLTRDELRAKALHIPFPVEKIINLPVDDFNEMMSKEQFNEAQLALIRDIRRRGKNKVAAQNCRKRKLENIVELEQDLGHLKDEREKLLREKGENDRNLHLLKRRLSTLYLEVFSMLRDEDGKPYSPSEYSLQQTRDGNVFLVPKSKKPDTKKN

[11] = test system: PC-12; experiment: Neuroprotective activity against H2O2-induced cell damage in rat PC-12 cells assessed as decrease in cell death at 10 uM pretreated for 12 hrs followed by H2O2 challenge by MTT assay; type: functional, cell-based
[12] = test system: PC-12; experiment: Protection against H2O2-induced ROS accumulation in rat PC-12 cells assessed as intracellular ROS level by measuring mean fluorescence intensity pretreated for 12 hrs followed by H2O2 challenge by DCFH-DA staining based flow cytometry; type: functional, cell-based; settings: dose 2.5-10 µM
[13] = test system: PC-12; experiment: Protection against 6-OHDA-induced apoptosis in rat PC-12 cells assessed as early apoptotic cells at 2.5 uM pretreated for 12 hrs followed by 6-OHDA challenge by annexin V FITC/propidium iodide staining based flow cytometry (reference value: 2.4 %); type: functional
[14] = test system: PC-12; experiment: Protection against H2O2-induced apoptosis in rat PC-12 cells assessed as early apoptic cells at 5 uM pretreated for 12 hrs followed by H2O2 challenge by annexin V FITC/propidium iodide staining based flow cytometry (reference value: 2.2 %); type: functional
[15] = test system: PC-12; experiment: Protection against 6-OHDA-induced apoptosis in rat PC-12 cells assessed as viable cells at 2.5 uM pretreated for 12 hrs followed by 6-OHDA challenge by annexin V FITC/propidium iodide staining based flow cytometry (reference value: 76.7 %); type: functional; settings: read-out: Activity
[16] = test system: PC-12; experiment: Cytoprotective activity against 6-OHDA induced cell death in rat PC-12 cells assessed as increase in viable cells at 10 uM pretreated for 12 hrs followed by 6-OHDA challenge by MTT assay relative to control; type: functional
[17] = test system: PC-12; experiment: Cytotoxicity against rat PC-12 cells at 25 uM incubated for 24 hrs by MTT assay; type: cell-based; settings: pc-12, 24 h
[18] = test system: PC-12; experiment: Protection against H2O2-induced apoptosis in rat PC-12 cells assessed as viable cells at 10 uM pretreated for 12 hrs followed by H2O2 challenge by annexin V FITC/propidium iodide staining based flow cytometry (reference value: 73.3 %); type: functional; settings: read-out: Activity
[19] = test system: PC-12; experiment: Protection against H2O2-induced apoptosis in rat PC-12 cells assessed as necrotic cells at 5 uM pretreated for 12 hrs followed by H2O2 challenge by annexin V FITC/propidium iodide staining based flow cytometry (reference value: 3.7 %); type: functional
[20] = test system: PC-12; experiment: Activation of Keap1-Nrf2-ARE pathway in rat PC-12 assessed as upregulation of TrxR1 protein expression measured after 12 hrs by Western blot analysis; settings: filed as activator, dose 2.5-10 µM
[21] = test system: PC-12; experiment: Cytoprotective activity against H2O2-induced oxidative stress in rat PC-12 cells assessed as decrease in cell death at 10 uM pretreated with brusatol for 1 hr followed by compound treatment for 12 hrs and subsequent H2O2 challenge by MTT assay; type: functional, cell-based
[22] = test system: PC-12; experiment: Cytoprotective activity against H2O2- induced cell death in rat PC-12 cells assessed as increase in viable cells at 10 uM pretreated for 12 hrs followed by H2O2 challenge by MTT assay relative to control; type: functional
[23] = test system: PC-12; experiment: Protection against 6-OHDA-induced apoptosis in rat PC-12 cells assessed as necrotic cells at 10 uM pretreated for 12 hrs followed by 6-OHDA challenge by annexin V FITC/propidium iodide staining based flow cytometry (reference value: 3.7 %); type: functional
[24] = test system: PC-12; experiment: Protection against H2O2-induced mitochondrial dysfunction in rat PC-12 cells assessed as change in mitochondrial membrane potential at 2.5 uM pretreated with compound for 12 hrs followed by H2O2 challenge by JC-1 staining based flow cytometry (reference value: 73 %); type: functional

Question: How did the Activity [1] turn out when `CN1C(N)=N[C@](C)(c2cc(-n3[se]c4cc(F)ccc4c3=O)ccc2F)CS1(=O)=O` was run?
Answer: Its Activity is “inactive”.

Question: What about the Activity [2] of the same compound?
Answer: The Activity was 4.7%.

Question: And the Activity [3]?
Answer: The Activity was 78.6%.

Question: And the Activity [4]?
Answer: Its Activity is 2.1%.

Question: And the viability at 5 µM [5]?
Answer: The viability at 5 µM was 83.4%.

Question: And the Activity [6]?
Answer: Its Activity is “Active”.

Question: And the Activity [7]?
Answer: Its Activity is “Active”.

Question: And the Activity [8]?
Answer: The Activity was 14.9%.

Question: And the Activity [9]?
Answer: Its Activity is 61.2%.

Question: And the Activity [10]?
Answer: The Activity was “Dose-Dependent Effect”.

Question: And the Activity [11]?
Answer: The Activity was “Active”.

Question: What about the Activity [12] of the same compound?
Answer: Its Activity is “Dose-Dependent Effect”.

Question: And the Activity [13]?
Answer: The Activity was 2%.

Question: What about the Activity [14] of the same compound?
Answer: The Activity was 1.6%.

Question: And the viability at 2.5 µM [15]?
Answer: Its viability at 2.5 µM is 79.8%.

Question: What about the Activity [16] of the same compound?
Answer: Its Activity is 77%.

Question: What about the Activity [17] of the same compound?
Answer: Its Activity is “Non-Toxic”.

Question: And the viability at 10 µM [18]?
Answer: Its viability at 10 µM is 92.6%.

Question: What about the Activity [19] of the same compound?
Answer: The Activity was 1.3%.

Question: And the Activity [20]?
Answer: The Activity was “Active”.

Question: And the Activity [21]?
Answer: Its Activity is “inactive”.

Question: What about the Activity [22] of the same compound?
Answer: Its Activity is 80%.

Question: What about the Activity [23] of the same compound?
Answer: Its Activity is 1.4%.

Question: What about the Activity [24] of the same compound?
Answer: The Activity was 75.1%.
